# Assay results as given in publication PMC6403188, “Species-Specific Structural Requirements of Alpha-Branched Trehalose Diester Mincle Agonists” (Frontiers in Immunology, 2019).
# Entries after “also recorded” stand apart in the source; their conditions may differ.
# Columns and labels:
# [1] = system: Hek Blue human or mouse Mincle-expressing cells; format: cell-based; conditions: top concentrations, 24 h; compared with vehicle only-treated cells
# [2] = system: RAW264.7 cells; experiment: Liposome formulations tested in RAW264.7 cells, TNFα ELISA; format: cell-based, mouse; conditions: formulated in DDA:DSPC liposome, 24 hours
# [3] = system: BALB/c mice; experiment: Anti-M72 serum antibody ELISA after i.m. vaccination with M72 antigen plus liposomal adjuvant; format: in vivo, mouse
# Experimental: (§1) Animal studies were carried out in an OLAW and AAALAC accredited vivarium in accordance with University of Montana's IACUC guidelines for the care and use of laboratory animals. Groups of 10–14 BALB/c mice were vaccinated intramuscularly with 0.125 μg M72 antigen and indicated concentrations of various CLR adjuvant candidates (liposomal formulations) in 50 μl total volume per injection. After 14 days, blood and serum samples were collected and a secondary vaccination was administered. At day 19 (5 days post-secondary vaccination), 3–6 mice per group were euthanized and spleens were harvested the assessment of cell-mediated immunity. At day 28 (14 days post booster vaccination) the remaining 7 mice in each group were euthanized and blood was collected for the measurement of M72 specific humoral immunity.
# Sera was collected from mice 14 days post-primary and 14 days post-secondary injection and diluted according to the expected antibody response (between 1:10 and 1:5000). Plates were coated with 100 μl of the full-length M72 protein at 1 μg/mL. Following washing (PBS plus tween 20) and blocking (SuperBlock, Scytek Laboratories), plates were incubated with diluted serum for 1 h followed by anti-mouse IgG, IgG1, or IgG2a-HRP secondary antibody (Bethyl Laboratories) and TMB substrate (BD). Plates were read at 450 nm. Antibody titers were determined by calculating titer of each sample at OD 0.3.
# Figure 6 Serum antibody levels from mice in response to vaccination with recombinant M72 antigen and various αTDE compounds. BALB/c mice, 10 per group, were vaccinated two times i.m. with 0.125 μg antigen plus 2, 10, or 50 nmol of the indicated adjuvant. Serum was analyzed from 7 mice at 14 days post-secondary vaccination for presence of anti-M72 IgG1 and IgG2a antibodies via ELISA.
# (§2) Figure 8 B16 liposomes biases a Th17/Th2 adaptive immune response. BALB/c mice, 14 per group, were immunized twice, 14 days apart, i.m with 0.1, 1, or 10 μg of M72 antigen plus either blank DDA:DSPC liposome or B16 loaded (10 nmol final dose) liposome. (A,B) M72-specific serum antibody titers at 14 days post-secondary vaccination. (C–F) Spleens were harvested from mice at 5 days post-secondary vaccination and restimulated with 1 μg/mL whole antigen and transport inhibitors followed by surface staining for CD3, CD4, and CD8 and then intracellular cytokine staining. (C) Percent of live, CD3^+/CD4^+/IL5+ cells, (D) Percent of live, CD3^+/CD8^+/IFNγ+ cells, (E) Percent of live, CD3^+/CD4^+/IL17+ cells, and (F) Percent of live, CD3^+/CD8^+/IL17+ cells. ^*p < 0.05, ^**p < 0.01, ^****p < 0.001.
# [4] = system: BALB/c mice; experiment: Splenocyte restimulation with M72 and intracellular cytokine staining of CD4/CD8 T cells after vaccination; format: in vivo, mouse
# Experimental: as §1
# Spleens were harvested from vaccinated mice 5 days after secondary injections and splenocytes were harvested by disruption of the spleens through a 100 μm filter. Red blood cells were lysed by incubation with red blood cell lysis buffer (Sigma) for 5 min followed by washing in 1x PBS. Cells were plated in a 96 well plate at 5 × 10^6 cells/well in 200 μL complete RPMI1640 media. Cells were incubated with 1 μg/mL M72 antigen for […] at 37°C. After 7 h, GolgiPlug (Brefeldin A, BD Biosciences) was added to each well and incubated at 37°C for a further 12 h. Following incubation, cells were stained with the cell surface antibodies against CD3e PerCP-Cy5.5 (Tonbo Biosciences, 145-2C11), CD4a APC-Cy7 (Tonbo Biosciences, RM4-5) and CD8a PE-Cy7 (Tonbo Biosciences, 53–6.7) and viability stain (Ghost 510, Tonbo Biosciences). Cells were treated with cytofix/cytoperm (BD) and stained with anti-IFNγ PE-CF594 (BD, XMG1.2), anti-IL2 FITC (Biolegend, JES6-5H4), anti-IL-5 PE (BD, TRFK5), anti-IL17A BV421 (Biolegend, TC11-18H10.1), and anti-TNFα APC (Invitrogen, MP6-XT22). Data was collected using an LSRII flow cytometer (BD) and analyzed using FlowJo 10.0 software (TreeStar). Splenocytes were gated on live, single cells, then CD3+ to identify all T cells, then gated as CD4+CD8- to identify CD4 T cells or CD4-CD8+ to identify CD8 T cells. Gates for intracellular cytokine positive CD4 or CD8 T cells are set based on re-stimulation of naïve splenocytes. Gating strategies for the detection of antigen specific CD4+ and CD8+ T cells are outlined in Supplemental Figure 3.
# Figure 7 Induction of IL-17 producing CD4+ and CD8+ T cells from an αTDE adjuvanted M72 vaccine. BALB/c mice, 10 per group, were immunized two times i.m. with 0.125 μg antigen plus 2, 10, or 50 nmol of the indicated adjuvant. Spleens were harvested from a subset of 3 mice per group at 5 days post-secondary vaccination. Splenocytes were restimulated with 1 μg/mL whole antigen and transport inhibitors followed by surface staining for CD3, CD4, and CD8 and then intracellular cytokine staining. Data represent percentage of live, CD3^+/CD4^+, left, or CD3^+/CD8^+, right, cells that are also positive for IL-17A upon stimulation.
# as §2
# Supplemental Figure 10. Production of IFNɣ, IL-2, IL-5 or TNFα by CD4 or CD8 T cells in response to various CLR compounds. […]
smiles,measurement,setting,value
CCCCCCCC(CCCCCCC)C(=O)OC[C@H]1O[C@H](O[C@H]2O[C@H](COC(=O)C(CCCCCCC)CCCCCCC)[C@@H](O)[C@H](O)[C@H]2O)[C@H](O)[C@@H](O)[C@@H]1O [Compound B16],Cell viability of Mincle HEK cells,[1],less substantial decreases
same,TNFα secretion from RAW cells in response to liposome formulation,[2],higher levels of TNFα secretion compared to B42
same,M72 specific serum IgG1 and IgG2a antibody titers,"[3]; 10 nmol B16 liposome, increasing doses of M72 antigen (0.1, 1, 10 μg), 14 dp2",significantly improved
same,M72 specific serum antibody titers,"[3]; 10 nmol B16 liposome, lowest dose of M72 antigen (0.1 μg)",did not exhibit significantly higher antibody titers
same,Anti-M72 serum IgG1 and IgG2a antibody,"[3]; 0.125 μg M72 antigen plus 2, 10, or 50 nmol adjuvant in DDA:DSPC liposomes, i.m. two times, 14 days post-secondary vaccination",neither compound significantly enhanced
same,Frequencies of IFNγ+ CD8 T cells or IFNγ+ CD4 T cells,"[4]; 10 nmol B16, 0.1, 1 or 10 μg M72, between groups",no differences
same,IL-2+ CD4 T cells,"[4]; 10 nmol B16, 0.1, 1 or 10 μg M72, compared to blank liposome",similarly increased only in the middle dose
same,Frequencies of TNFα+ CD4 T cells,"[4]; 10 nmol B16, compared to antigen matched blank liposome groups",not increased
same,Frequencies of IL-5+ CD4 T cells,"[4]; 10 nmol B16, highest antigen dose tested",no difference is observed
same,"Frequencies of IL-5+, IL-2+, and TNFα+ CD8 T cells","[4]; 10 nmol B16, highest dose of antigen",not at the highest dose
same,"Frequencies of IL-5+, IL-2+, and TNFα+ CD8 T cells","[4]; 10 nmol B16, lower doses of antigen, compared to antigen plus blank liposome",also increased
same,Frequencies of IL-5+ CD4 T cells,"[4]; 10 nmol B16, two lower doses of antigen, compared to antigen plus blank liposome",similarly increased
same,Frequencies of IL-17+ CD4 and CD8 T cells,"[4]; 10 nmol liposomal B16 with 0.1 μg and 1 μg M72/mouse, compared to antigen plus blank liposomes",significantly higher frequencies
same,Frequencies of IL-17+ CD4 and CD8 T cells,"[4]; 10 nmol liposomal B16 with 10 μg M72, compared to antigen plus blank liposome",not significant
same,IL-17+ CD4+ and CD8+ T cells (Th17 response) after M72 re-stimulation,"[4]; 0.125 μg antigen plus 2, 10, or 50 nmol liposomal adjuvant, i.m. two times, spleens 5 days post-secondary",greatest frequency of IL-17+ cells; also recorded: more effective
